# Measurements reported in PubChem BioAssay (NCI).
#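 Values below derive from 48-hour exposures of cells grown in 96-well plates, with endpoints linearly interpolated between the two concentrations bracketing the appropriate inhibition level. At the GI50, growth is halved. TGI: concentration producing complete growth inhibition.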
# Assays:
# Assay in all cases: inhibition of tumour cell growth, NCI panel, 48 h
# SF-295 CNS = system: SF-295 CNS
# UO-31 renal = system: UO-31 renal
# MOLT-4 leukemia = system: MOLT-4 leukemia
# SW-620 colon = system: SW-620 colon
# A498 renal = system: A498 renal
# HL-60(TB) leukemia = system: HL-60(TB) leukemia
# HCC-2998 colon = system: HCC-2998 colon
# MDA-MB-435 = system: MDA-MB-435
# CCRF-CEM leukemia = system: CCRF-CEM leukemia
# MCF7 breast = system: MCF7 breast
Structure (SMILES),GI50 (SF-295 CNS) [µM],TGI (SF-295 CNS) [µM],TGI (UO-31 renal) [µM],GI50 (MOLT-4 leukemia) [µM],TGI (MOLT-4 leukemia) [µM],GI50 (SW-620 colon) [µM],TGI (SW-620 colon) [µM],GI50 (A498 renal) [µM],TGI (A498 renal) [µM],GI50 (HL-60(TB) leukemia) [µM],TGI (HL-60(TB) leukemia) [µM],GI50 (HCC-2998 colon) [µM],TGI (HCC-2998 colon) [µM],GI50 (MDA-MB-435) [µM],TGI (MDA-MB-435) [µM],GI50 (CCRF-CEM leukemia) [µM],TGI (CCRF-CEM leukemia) [µM],GI50 (MCF7 breast) [µM],TGI (MCF7 breast) [µM],GI50 (UO-31 renal) [µM]
COc1ccc2c(c1)c(CC(=O)[Se]C)c(C)n2C(=O)c1ccc(Cl)cc1,> 0.365,> 0.58,> 0.523,> 0.335,> 1,> 0.468,> 0.854,0.269,> 0.561,> 0.398,> 0.779,> 0.673,> 1,> 0.231,> 0.503,> 0.391,> 1,> 0.35,> 1,–
C/C(=N/NC(=S)N1CCCCC1)c1ccccc1O,–,> 31.6,> 31.6,–,> 31.6,–,> 31.6,–,> 100,–,> 31.6,–,> 31.6,–,> 31.6,–,> 31.6,–,> 31.6,–
N#C/C(=C\c1ccsc1)c1nc2ccccc2o1,31.5,> 100,> 100,> 100,> 100,> 100,> 100,33.6,> 100,> 100,> 100,> 100,> 100,> 100,> 100,–,26.3,17.8,> 100,46.4
CC1=C(c2cccc(O)c2)[C@H](c2ccc(OCCN3CC(CF)C3)cc2)Oc2ccc(O)cc21,4.27,16.5,16,3.59,16,7.28,20.9,1.68,9.66,4.39,22.2,3.84,15.4,12,24.3,4.72,21.2,0.0194,13.4,3.56
Cc1c(Cl)cccc1C(=O)Nc1nc2c(s1)CN(C(=O)c1ccc(C(F)(F)F)cc1)CC2,0.0224,> 50,> 50,0.193,> 50,0.0656,> 50,0.064,20.9,0.108,1.25,0.2,> 50,0.0154,0.0521,0.135,> 50,0.0281,> 37.7,0.507
C[C@@H]1[C@H](C)N1CC(O)Cn1ccnc1[N+](=O)[O-] (stereo partly drawn),–,> 100,> 100,–,> 100,–,> 100,–,> 100,–,> 100,–,> 100,–,> 100,–,> 100,–,> 100,–
COc1cc2c(cc1OC)[C@H](C)N1CCc3cc(OC)c(OC)cc3[C@@H]1C2,–,> 100,> 100,–,> 100,–,> 100,–,> 100,–,> 100,–,> 100,–,> 100,–,> 100,–,> 100,–
Cc1cccc(/C=N/NC(=S)N2CCCC2)n1,1.08,4.24,4.19,–,> 100,0.352,> 100,7.22,5.61,0.236,0.872,0.102,0.92,1.11,> 100,0.0659,0.85,0.169,–,0.748
Cc1cc(NCCCN(C)C)c2ccc3c(ccc4c(NCCCN(C)C)cc(C)nc43)c2n1,0.205,0.745,0.557,0.27,–,0.185,0.493,0.189,0.409,0.0375,–,0.134,0.323,0.226,0.539,0.158,0.478,0.0635,0.302,0.231
COC1CC(O[C@H]2CC[C@@]3(C)[C@H](CC[C@@H]4[C@@H]3CC[C@]3(C)[C@@H](C5=CC(=O)OC5)[C@@H](OC(C)=O)C[C@]43O)C2)OC(C)C1O (stereo partly drawn),< 0.01,< 0.01,< 0.01,< 0.01,< 0.01,< 0.01,< 0.01,< 0.01,< 0.0137,< 0.01,< 0.0331,< 0.01,< 0.0187,< 0.01,< 0.0109,< 0.01,–,< 0.01,< 0.0117,< 0.01
CC(C)(C)C(=O)OCC1C(=O)OCC1C(=O)N1Cc2cc3ccccc3nc2C1 (stereo not drawn),–,27.4,7.99,–,4.06,–,3.17,–,26,–,3.13,–,29.3,–,15.7,–,5.89,–,14.6,–
O=C1CCCCCCCCCCC1CN1CCCC1 (stereo not drawn),–,86.3,> 100,–,> 100,–,> 100,–,> 100,–,> 100,–,70.6,–,> 100,–,> 100,–,50.3,–
CC(=O)N1CC(C)(C)c2c(C)c(O)c(C)c(C)c21,–,> 100,> 100,–,> 100,–,> 100,–,> 100,–,> 100,–,> 100,–,> 100,–,> 100,–,> 100,–
